ChEMBL document CHEMBL5579815, “Novel angiogenesis inhibitors with superoxide anion radical amplification effect: Surmounting the Achilles' heels of angiogenesis inhibitors and photosensitizers” (Eur J Med Chem, 2024)
The source made the active and inactive calls. No cut-off for these calls is given here.

Legend:
[1] = Induction of ROS generation in methanol solution assessed as reduction in DPBF absorption peak at 10 uM irradiated with 650 nm 10 mW/cm2 light for upto 9 mins by DPBF probe based UV-vis absorption spectra analysis; assay type: functional
[2] = Induction of ROS generation in methanol solution assessed as increase in singlet oxygen level by measuring reduction in ABDA absorption peak at 10 uM irradiated with 650 nm 10 mW/cm2 light for upto 9 mins by ABDA probe based UV-vis absorption spectra analysis; assay type: functional
[3] = Induction of ROS generation in methanol solution assessed as increase in superoxide anion radical level by measuring increase in DHR123 fluorescence intensity at 10 uM irradiated with 650 nm 10 mW/cm2 light for upto 15 mins by DHR123 probe based fluorescence spectra analysis; assay type: functional
SK-MEL-28 [4] = experiment: (§1) Cytotoxicity against human SK-MEL-28 cells assessed as reduction in cell viability at 0.008 to 1 uM preincubated for 24 hrs under normoxic condition followed by media removal and irradiated with 650 nm 10 mW/cm2 light for 15 mins under normoxic condition prior to media replacement and measured after 24 hrs by MTT assay; assay type: functional, cell-based; conditions: dose 0.008-1 µM
SK-MEL-28 [5] = experiment: as §1, with “hypoxic” for “normoxic”; assay type: functional, cell-based; conditions: dose 0.008-1 µM
SK-MEL-28 [6] = experiment: as §1, with “viability” for “viability at 0.008 to 1 uM”; assay type: functional, cell-based; conditions: SK-MEL-28, light or radiation study
SK-MEL-28 [7] = experiment: as §1, with “viability” for “viability at 0.008 to 1 uM”, “hypoxic” for “normoxic”; assay type: functional, cell-based; conditions: SK-MEL-28, light or radiation study
SK-MEL-28 [8] = experiment: Cytotoxicity against human SK-MEL-28 cells assessed as reduction in cell viability by MTT assay; assay type: functional, cell-based

CCN(CC)c1ccc2nc3c4ccccc4/c(=N\CCCCCC(=O)NCCNC(=O)c4cc(Oc5ccc(NC(=O)Nc6ccc(Cl)c(C(F)(F)F)c6)cc5)ccn4)cc-3sc2c1
Activity [1]: Active | Activity [2]: inactive | Activity [3]: Active | Activity (SK-MEL-28 [4]): Active | Activity (SK-MEL-28 [5]): Active

CCN(CC)c1ccc2nc3c4ccccc4/c(=N\CCCCCCNC(=O)CCC(=O)Nc4cccc(-c5cn(Cc6ccc(-c7ccc(OC)nc7)cc6)nn5)c4)cc-3sc2c1
Activity [1]: Active | Activity [2]: inactive | Activity [3]: Active

CCN(CC)c1ccc2nc3c4ccccc4/c(=N\CCCCCC(=O)NCCCNC(=O)c4cc(Oc5ccc(NC(=O)Nc6ccc(Cl)c(C(F)(F)F)c6)cc5)ccn4)cc-3sc2c1
Activity [1]: Active | Activity [2]: inactive | Activity [3]: Active | Activity (SK-MEL-28 [4]): Active | Activity (SK-MEL-28 [5]): Active

CCN(CC)c1ccc2nc3c4ccccc4/c(=N\CCCCCC(=O)O)cc-3sc2c1
Activity [1]: Active | Activity [2]: inactive | Activity [3]: Active

CCN(CC)c1ccc2nc3c4ccccc4/c(=N\CCCCCCn4cc(CCC(=O)Nc5cccc(-c6cn(Cc7ccc(-c8ccc(OC)nc8)cc7)nn6)c5)nn4)cc-3sc2c1
Activity [1]: Active | Activity [2]: inactive | Activity [3]: Active

CCN(CC)c1ccc2nc3c4ccccc4/c(=N\CCCCCCN)cc-3sc2c1
Activity [1]: Active | Activity [2]: inactive | Activity [3]: Active | IC50 (SK-MEL-28 [6]): 14.2 µM | IC50 (SK-MEL-28 [7]): > 20 µM

CCN(CC)c1ccc2nc3c4ccccc4/c(=N\CCCCCCn4cc(CCCCNC(=O)c5cc(Oc6ccc(NC(=O)Nc7ccc(Cl)c(C(F)(F)F)c7)cc6)ccn5)nn4)cc-3sc2c1
Activity [1]: Active | Activity [2]: inactive | Activity [3]: Active | Activity (SK-MEL-28 [4]): Active | Activity (SK-MEL-28 [5]): Active

CCN(CC)c1ccc2nc3c4ccccc4/c(=N\CCCCCC(=O)Nc4cccc(-c5cn(Cc6ccc(-c7ccc(OC)nc7)cc6)nn5)c4)cc-3sc2c1
Activity [1]: Active | Activity [2]: inactive | Activity [3]: Active

CCN(CC)c1ccc2nc3c4ccccc4/c(=N\CCCCCCn4cc(CCNC(=O)c5cc(Oc6ccc(NC(=O)Nc7ccc(Cl)c(C(F)(F)F)c7)cc6)ccn5)nn4)cc-3sc2c1
Activity [1]: Active | Activity [2]: inactive | Activity [3]: Active | Activity (SK-MEL-28 [4]): Active | Activity (SK-MEL-28 [5]): Active

CCN(CC)c1ccc2nc3c4ccccc4/c(=N\CCCCCCN=[N+]=[N-])cc-3sc2c1
Activity [1]: Active | Activity [2]: inactive | Activity [3]: Active

CCN(CC)c1ccc2nc3c4ccccc4/c(=N\CCCCCCn4cc(CNC(=O)c5cc(Oc6ccc(NC(=O)Nc7ccc(Cl)c(C(F)(F)F)c7)cc6)ccn5)nn4)cc-3sc2c1
Activity [1]: Active | Activity [2]: inactive | Activity [3]: Active | Activity (SK-MEL-28 [4]): Active | Activity (SK-MEL-28 [5]): Active

CNC(=O)c1cc(Oc2ccc(NC(=O)Nc3ccc(Cl)c(C(F)(F)F)c3)cc2)ccn1 [SORAFENIB]
IC50 (SK-MEL-28 [8]): 9.49 µM

CCN(CC)c1ccc2nc3c4ccccc4/c(=N\CCCCCCn4cc(CCCC(=O)Nc5cccc(-c6cn(Cc7ccc(-c8ccc(OC)nc8)cc7)nn6)c5)nn4)cc-3sc2c1
Activity [1]: Active | Activity [2]: inactive | Activity [3]: Active

CCN(CC)c1ccc2nc3c4ccccc4/c(=N\CCCCCCNC(=O)CC(=O)Nc4cccc(-c5cn(Cc6ccc(-c7ccc(OC)nc7)cc6)nn5)c4)cc-3sc2c1
Activity [1]: Active | Activity [2]: inactive | Activity [3]: Active
